Holding throughout (test): Field trial with maize, herbicidal action
Holding throughout (format): in vivo

Assay [1] deals with Lamium amplexicaule. As to conditions: application 1-leaf stage, scoring 17 days after application. The method, then: (§1) Transgenic maize plants with a resistance to one or more herbicides (A) together with typical weed plants were grown in the open on 2×5 m plots under natural field conditions; alternatively, weed infestation occurred naturally when the maize plants were grown.
(§2) […] The damage to, and the development of, all aerial parts of the plants was recorded. Scoring was done on the basis of a percentage sale (100% action=all plants destroyed; 50% action=50% of the plants and green parts of the plants destroyed; 0% action=no recognizable effect=like control plot. The mean of the score values of in each case 4 plots was calculated.

In assay [2] the test system is Cassia obtusifolia. The following applies: 925 g of a.s./ha; application 3-leaf stage; scoring 21 days after application. The method, then: as §1, §2
Assay [3] relates to Lolium multiflorum. As to conditions: 2.5 g of a.s./ha; application 2- to 4-leaf stage; scoring 26 days after application. How it is done:
as §1, §2

For assay [4], the system named is Fagopyrum esculentum. As to conditions: 2.5 g of a.s./ha; application 2- to 4-leaf stage; scoring 26 days after application. The method, then: as §1, §2

As for `O=C(O)CNCP(=O)(O)O` [(A2.1), N-(phosphonomethyl)glycine], the “Herbicidal action (%) against Lamium amplexicaule” value in assay [1] (400 g of a.s./ha) came to 75%; in assay [1] (600 g of a.s./ha), 90%.
As for `CCC(CC)Nc1c([N+](=O)[O-])cc(C)c(C)c1[N+](=O)[O-]` [(B2.1), N-(1-ethylpropyl)-2,6-dinitro-3,4-xylidine], the “Herbicidal action (%) against Cassia obtusifolia” value in assay [2] is listed as 0%.
`COc1nc(C)nc(NC(=O)NS(=O)(=O)c2cc(I)ccc2C(=O)O)n1` [(B2.3), 4-iodo-2-(4-methoxy-6-methyl-1,3,5-triazin-2-ylcarbamoylsulfamoyl)benzoic acid]: the “Herbicidal action (%) against Lolium multiflorum” value in assay [3] is given as 84%. In assay [1] (2.5 g of a.s./ha), the “Herbicidal action (%) against Lamium amplexicaule” value amounted to 55%. Also, the “Herbicidal action (%) against Fagopyron esculentum” value in assay [4] amounted to 85%.

The values are drawn from patent publication US8772199B2, “Herbicidal compositions for tolerant or resistant maize crops” (Bayer Intellectual Property GmbH, priority 1998, dated 2014).
